Paper PMC12670426 (Journal of Medicinal Chemistry, 2025)

Tests used:
[1] = Plasma stability assay, human plasma; type: in vitro ADME; conditions: pooled plasma, 37 °C
Experimental: (§1) Test compounds (10 μM) were incubated with mouse, rat, or human pooled plasma from 50 donors (Biowest) at 37 °C for 20, 60, and 120 min. Reactions were terminated by adding four volumes of ice-cold methanol, followed by vigorous mixing. Samples were kept at −20 °C for 30 min and then stored at 4 °C overnight. The next day, samples were centrifuged, and supernatants were diluted with four volumes of 30% methanol in water. Zero time points were prepared by adding ice-cold methanol to the compound prior to the addition of plasma. Samples were then analyzed on an Echo MS system (SCIEX) using multiple reaction monitoring (MRM). The only exception was compound 3af, which was analyzed by LC–MS/MS (SCIEX 6500 triple quadrupole) due to its weak ionization in Echo-MS.

[2] = Cytotoxicity assay, HEK293; type: cell-based; conditions: human, HEK293 cells, viability dye, flow cytometry
Experimental: To evaluate in vitro cytotoxicity and support its potential application in inflammatory and fibrotic disease models, the following panel of cell lines, representing the relevant biological systems, was used: HEK293, HepG2, THP1, Jurkat E6.1, and LX2. HEK293, HepG2, and Jurkat E6.1 cells were seeded at 400,000 cells/mL, THP1 cells at 500,000 cells/mL, and LX2 cells at 200,000 cells/mL in 96-well plates (cell culture-treated, VWR) in 100 μL/well. Cells were treated with the tested compounds in a serial dilution (300, 100, 33.3, 11.1, and 3.7 μM) for 24 h. Untreated cells served as negative controls to establish the baseline viability threshold. Cell viability was assessed using a viability dye (Zombie Violet Fixable Viability Kit, BioLegend) following the manufacturer’s instructions and analyzed by flow cytometry (see below).
(§2) Cells or beads from screening assays prepared for flow cytometry were analyzed by the CytoFlex S instrument (Beckman Coulter). Data acquisition was performed using CytExpert software (v2.5, Beckman Coulter). Debris was excluded by forward and side scatter gating, followed by doublet exclusion. Data were analyzed using FlowJo software (v10, BD Biosciences).

[3] = Microsomal stability assay, mouse liver microsomes; type: in vitro ADME; conditions: pooled liver microsomes, pH 7.4, mouse liver microsomes 0.5 mg/mL, NADPH
Experimental: Microsomal stability was determined using 0.5 mg/mL of pooled human, mouse, or rat liver microsomes (Thermo Fisher Scientific) in 90 mM TRIS-Cl buffer (pH 7.4) containing 2 mM NADPH and 2 mM MgCl2. Test compounds (10 μM) were added, and the resulting mixture was incubated at 37 °C for 10, 60, 120, and 180 min. The reactions were terminated by the addition of four volumes of ice-cold methanol, followed by vigorous mixing. The samples were left at −20 °C for 30 min and then stored at 4 °C overnight. The next day, samples were centrifuged, and supernatants were diluted with four volumes of 30% methanol in water. Zero time points were prepared by adding ice-cold methanol to the mixture of compounds and cofactors prior to the addition of microsomes. The samples were then analyzed using the Echo-MS system (SCIEX) with MRM transition monitoring, except for compound 3af, which was analyzed by LC–MS/MS as described in the plasma stability assay.

[4] = Plasma protein binding assay (rapid equilibrium dialysis), mouse plasma; type: in vitro ADME; conditions: fraction bound, read-out: plasma protein binding Fb mouse (converted)
Experimental: (§3) Test compound (10 μM) was incubated at 37 °C for 4 h with mouse, rat, or human plasma (Biowest) in the donor well of a rapid equilibrium dialysis plate (Thermo Fisher Scientific). PBS was placed in the acceptor well. To stop the assay, samples were collected from both wells, and an equal volume of plasma was added to the PBS sample, and vice versa. Proteins were then precipitated by adding three volumes of ice-cold methanol. Samples were mixed gently, kept at −20 °C for 30 min, and then stored at 4 °C overnight. The next day, the samples were centrifuged, and the supernatants were diluted with four volumes of 30% methanol in water. The samples were then analyzed using the Echo-MS system (SCIEX) with MRM transition monitoring, except for compound 3af, which was analyzed by LC–MS/MS as described in the plasma stability assay.

[5] = target: T1, intracellular Gal-3 in THP1 cells (Homo sapiens, UniProt P17931); assay: Intracellular Gal-3 target engagement in THP1 cells (flow cytometry, MFI); type: cell-based; conditions: 2 h
T1 construct: Untreated cells served as negative and baseline controls representing maximum intracellular Gal-3 levels; endogenous in cells; host or cells: THP1 (monocyte-like or PMA-differentiated macrophage-like)
Experimental: THP1 cells were used to assess the binding of the tested compounds to Gal-3. Cells were either maintained in suspension as undifferentiated monocyte-like cells or differentiated into macrophage-like cells by overnight treatment with phorbol 12-myristate 13-acetate (PMA, Sigma-Aldrich) at a final concentration of 10 ng/mL. […] Untreated cells served as negative and baseline controls representing maximum intracellular Gal-3 levels. Cells were then harvested and intracellularly stained either with galectin-3 monoclonal antibody eF660 (Invitrogen, Thermo Fisher Scientific) or a relevant isotype antibody (Invitrogen, Thermo Fisher Scientific) for flow cytometric analyses (see below). A dose-dependent decrease in Gal-3 signal upon compound treatment was used to assess intracellular target engagement expressed as median fluorescent intensity (MFI).
as §2

[6] = Plasma stability assay, mouse plasma; type: in vitro ADME; conditions: 37 °C
Experimental: as §1

[7] = Plasma stability assay, rat plasma; type: in vitro ADME; conditions: 37 °C
Experimental: as §1

[8] = Plasma protein binding assay (rapid equilibrium dialysis), human plasma; type: in vitro ADME; conditions: fraction bound, read-out: plasma protein binding Fb human (converted)
Experimental: as §3

T1 sequence (P17931 whole entry): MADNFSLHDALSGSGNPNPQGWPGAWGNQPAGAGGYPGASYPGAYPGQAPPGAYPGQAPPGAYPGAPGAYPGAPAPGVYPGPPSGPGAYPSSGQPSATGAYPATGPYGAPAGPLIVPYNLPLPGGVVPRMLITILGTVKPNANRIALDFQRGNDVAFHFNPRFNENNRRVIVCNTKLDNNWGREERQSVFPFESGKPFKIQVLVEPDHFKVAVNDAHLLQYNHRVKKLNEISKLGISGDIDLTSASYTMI

SMILES: CC(=O)N(c1cc(C(=O)O)cc2[nH]ccc12)[C@@H]1O[C@H](CO)[C@@H](S[C@@H]2O[C@H](CO)[C@H](O)[C@H](n3cc(-c4cccc(F)c4)nn3)[C@H]2O)[C@H](O)[C@H]1O [Compound 11, N-[4-S-(3-Deoxy-3-(4-(3-fluorophenyl)-1H-1,2,3-triazol-1-yl)-β-D-galactopyranosyl)-4-thio-β-D-glucopyranosyl]-N-(6-carboxy-1H-indol-4-yl)acetamide]
- remaining at 2 h, 10 μM [1]: 110 ± 6%
- CC50 at 24 h [2]: > 300 µM
- microsomal CLint at 10 μM [3]: < 2 µL/min/mg
- fraction unbound at 4 h, 10 μM [4]: 0.57
- intracellular Gal-3 signal (MFI), macrophage-like THP1 cells ([5]; (+)PMA differentiated THP1, 3.7–300 μM): concentration-dependent reduction
- intracellular Gal-3 signal (MFI), monocyte-like THP1 cells ([5]; (−)PMA undifferentiated THP1, 3.7–300 μM): concentration-dependent reduction
- remaining at 2 h, 10 μM [6]: 100 ± 3%
- remaining at 2 h, 10 μM [7]: 87 ± 6%
- fraction unbound at 4 h, 10 μM [8]: 0.55
